Laboratory results taken from EP2631232B1, “Halogen derivatives of benzo[b]furans useful as anti-neoplastic or anti-proliferative drugs” (Centrum Badan Molekularnych I Makromolekularnych Pan, priority 2012, dated 2013).

Legend:
[1] = tested on: HUVEC cells (normal human endothelial cells); assay: MTT cytotoxicity test, normal HUVEC cells; type: cell-based; details: for toxicity to normal HUVEC cells (in words): 48 hours of incubation; for IC50: Homo sapiens, MTT, 48h incubation
Method: (§1) A number of halogen derivatives of benzo[b]furans were tested for cytotoxic properties against four cell lines. The tests were conducted by means of MTT where yellow tetrazole salt was processed by the dehydrogenases in mitochondria of live cells into violet formazan, in cell lines mentioned below: • HeLa cells (uterine cervix cancer); • HL60 cells (human acute myelogenous leukaemia); • K562 cells (human chronic myelogenous leukaemia), and • HUVEC cells (normal human endothelial cells). • 1. HeLa, K562, HL 60, and HUVEC cells, 7 thousand cells per well (in 200 µl of the medium) were disseminated on 96-well plates. Cells were incubated overnight in the incubator (37°C, 5% CO2). • 2. Test compounds were dissolved in DMSO; 2µL solution amounts were added to the cells. Final concentrations of the culture: 1mM, 10µM, 100nM, 1nM. Control: DMSO-containing cells, final concentration of which amounted to 1% in the culture. • 3. Cytotoxicity test (MTT) of test compounds after 48h incubation. After 48h incubation of HeLa, K562, HL60, or HUVEC cells with test compounds, 25 µl of MTT per well added (input concentration = 5mg/ml) to the mixture. MTT, yellow tetrazole salt was reduced to violet formazan by mitochondrial dehydrogenases of live cells; the volume of formazan was measured spectrophotometrically. After 2h incubation of cells with MTT in the incubator (37°C; 5% CO2), cells were lysed in lysing buffer containing SDS and DMF (95 µl/well). The lysis was conducted overnight at 37°C and with 5% CO2. • 4. MTT results were taken from FLUOstar Omega reader (wavelengths: 570 and 650 nm). Absorbance measured at 570 nm was proportional to the number of live cells. The plates were analysed by reading out the absorbance values at 570 nm and 650 nm wavelengths. The values of IC50 (concentration of compound producing a 50% cell mortality) was taken from the diagram by means of interpolation for a 50% cell survival rate.

[2] = tested on: HL60 cells (human acute myelogenous leukaemia); assay: MTT cytotoxicity test, HL60 cells; type: cell-based; details: for toxicity to HL60 cells (in words): 48 hours of incubation; for IC50: Homo sapiens, HL-60, MTT, 48h incubation
Method: as §1

[3] = tested on: K562 cells (human chronic myelogenous leukaemia); assay: MTT cytotoxicity test, K562 cells; type: cell-based; details: for toxicity to K562 cells (in words): 48 hours of incubation; for IC50: Homo sapiens, MTT, 48h incubation
Method: as §1

[4] = tested on: HeLa cells (uterine cervix cancer); assay: MTT cytotoxicity test, HeLa cells; type: cell-based; details: for toxicity to HeLa cells (in words): 48 hours of incubation; for IC50: Homo sapiens, MTT, 48h incubation
Method: as §1

[5] = tested on: K562 cells (human chronic myelogenous leukaemia); details: comparison value for cis-platinum; cited from earlier work
caspase 3 and 7 = assay: Apo-ONE Homogeneous Caspase-3/7 Assay in K562 cells; type: cell-based, human
Method: The above mentioned toxicity of compound 1a was tested for its origin, i.e. induction of necrosis or apoptosis in the K562 cells of chronic myelogenous leukaemia. Accordingly: • K562 cells in RPMI 1640 medium containing a 10% calf foetal serum and antibiotics, were disseminated on a 96-well plate, in the amount of 20 x 10^3 cells per well. Cells were cultured for 24 hours in the incubator (5% CO2; 37°C). • Compound 1a was dissolved in DMSO and added to the cell medium; final concentration in the cell culture was 25 μM (5 x IC50). Negative control was established by means of cells cultured in the presence of DMSO at the concentration of 1%. Positive control was established by means of cells cultured in the presence of 1 μM staurosporin, a strong apoptosis inductor. The cells were incubated with the compounds for 18 hours in the incubator (5% CO2; 37°C). • The test to determine the activity of […] […] Due to proteolytic activity of caspases, the pro-fluorescent substrate was transformed into a fluorescent product the amount of which could be determined by means of fluorescence intensity measurement. • Fluorescence intensity in each well was measured on the plate by means of FLUOStar Omega (BMG-Labtech, Germany) plate reader, at the exciting light wavelength of 485 nm and emission of 520 nm. Fluorescence intensity was proportional to the activity of caspase 3 and 7 in the sample.

SMILES | toxicity to normal HUVEC cells (in words) [1] | IC50 [1] | toxicity to HL60 cells (in words) [2] | IC50 [2] | toxicity to K562 cells (in words) [3] | IC50 [3] | toxicity to HeLa cells (in words) [4] | IC50 [4] | IC50 value against K562 cells [5] | activity of caspase 3 and 7 (caspase 3 and 7; 25 µM, 18 hours incubation, compared with reference cells (K562 and K562+DMSO), Fig. 1) | activity of caspases 3 and 7 (caspase 3 and 7; 1a concentration = 25 µM, incubation time = 24h)
COC(=O)c1c(C)oc2cc(C(=O)C(Cl)Cl)c(O)c(Cl)c12 [Compound 1e] | not toxic | > 1 mM | specifically toxic | 3 µM | not toxic | > 1000 µM | specifically toxic | 10 µM |  |  | 
COC(=O)c1c(C)oc2cc(C(=O)C(Br)Br)c(OC)cc12 [Compound 1c] | not toxic | > 1 mM | toxic | 4 µM | toxic | 1 µM | toxic | 1 µM |  |  | 
N.N.[Cl][Pt][Cl] [cis-platinum] |  |  |  |  |  |  |  |  | several to several dozens |  | 
COC(=O)c1c(C)oc2cc(C(=O)C(Br)Br)c(O)c(Br)c12 [Compound 1b] | not toxic | > 1 mM | toxic | 4 µM | toxic | 1 µM | toxic | 9 µM |  |  | 
COc1cc2c(CBr)c(C(C)=O)oc2c(C(C)=O)c1OC [Compound 1a, 1,1'-[3-(bromomethyl)-5,6-dimethoxy-1-benzofuran-2,7-diyl] diethanon] | not toxic | > 1 mM | Strong toxicity | 0.1 µM | Strong toxicity | 5 µM | toxic to neither | > 1000 µM |  | higher | increased
